In the assay the test system is MCA-207 fibrosarcoma tumor cells. Description: Growth of MCA-207 tumors (Example 11). Particulars: ganciclovir with empty liposomes (data not shown). In kind it is in vivo, C57 mice. The method, then: This example describes the treatment of tumors using the method of the invention. […] The general method is set out in FIG. 8.
24 female C57 mice were seeded with 100,000 MCA-207 fibrosarcoma tumor cells (provided by S. Rosenberg, National Cancer Institute, Frederick/Bethesda, MD) by intra-dermal injection on day zero. The tumor cells had been cultivated and prepared according to standard techniques using RPMI media with 10% Fetal Bovine Serum (see for example Current Protocols in Molecular Biology). Beginning on day 5, all animals were treated with the lipid/therapeutic nucleic acid formulation listed in the chart, supra. The formulation was delivered intravenously through the tail vein. 80 μg of pINEX-TK10 DNA were injected in a total volume of 200 μL. Treatments were administered on days 5, 7, 9, 11 and 13.
Beginning on day 5, all animals were treated with ganciclovir twice daily. 1 mg (˜50 mg/kg) were injected intra-peritoneally in a total volume of 200 μL PBS. Treatments continued twice daily for 12 days (see, FIG. 9(A)). Mice were monitored for tumor growth.

`Nc1nc(O)c2ncn(COC(CO)CO)c2n1` [ganciclovir]: the Tumor reduction result is listed as “no effect”.

The values are drawn from patent publication US20050118253A1, “Systemic delivery of serum stable plasmid lipid particles for cancer therapy” (Protiva Biotherapeutics, Inc., priority 1998, published 2005).
